Results on 10 molecules are retold here after patent publication US11987588B2, “Modulators of the beta-3 adrenergic receptor useful for the treatment or prevention of heart failure and disorders related thereto” (Arena Pharmaceuticals, Inc., priority 2017, dated 2024).

The experiment concerns the target Beta-3 Adrenergic Receptor (Homo sapiens (Human), UniProt P13945). Briefly: Homogeneous Time-Resolved Fluorescence (HTRF) cAMP antagonist assay, IC50 determination. The following applies: CHO-K1 cells stably expressing recombinant receptor, isoproterenol at EC90. It is filed as cell-based. In short, it runs like this:
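Antagonist mode: isoproterenol at its predetermined EC90 added after compound to recombinant CHO-K1 cells in IBMX-containing PBS, 1 h, room temperature. Compounds tested as 5-fold, 10-point dilutions, top final typically 10 or 100 μM. HTRF signal converted to cAMP via standard curve, giving IC50.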
In general terms: Time-resolved FRET reads energy transfer from a long-lived donor to a nearby acceptor.

Chain of Beta-3 Adrenergic Receptor (P13945 whole entry, species assumed): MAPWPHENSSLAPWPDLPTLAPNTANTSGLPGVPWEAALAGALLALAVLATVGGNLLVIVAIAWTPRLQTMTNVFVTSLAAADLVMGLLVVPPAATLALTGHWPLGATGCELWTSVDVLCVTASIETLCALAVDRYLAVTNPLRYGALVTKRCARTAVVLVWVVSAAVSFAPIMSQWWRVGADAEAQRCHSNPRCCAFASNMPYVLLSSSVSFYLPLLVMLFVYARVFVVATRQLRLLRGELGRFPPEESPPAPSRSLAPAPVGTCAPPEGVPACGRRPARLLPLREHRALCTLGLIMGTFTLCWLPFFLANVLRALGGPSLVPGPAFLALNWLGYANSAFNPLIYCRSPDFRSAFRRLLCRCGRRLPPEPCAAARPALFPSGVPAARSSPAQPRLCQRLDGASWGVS

Take `CNS(=O)(=O)c1cccc(OC[C@@H](O)CN[C@@H]2COC3(CCN(S(=O)(=O)c4ccc5c(c4)CCCO5)CC3)C2)c1` [Compound 183, 3—((S)-3-((S)-8-(chroman-6-ylsulfonyl)-1-oxa-8-azaspiro[4.5]decan-3-ylamino)-2-hydroxypropoxy)-N-methylbenzenesulfonamide]: the concentration for half-maximal inhibition (IC50) (commonly the midpoint of a concentration-inhibition curve) amounted to 16.4 nM. `CNS(=O)(=O)c1cccc(OC[C@@H](O)CNC2COC3(CCN(S(=O)(=O)c4ccc(OC)c5c4CCCC5)CC3)C2)c1` (stereo partly drawn) [Compound 222, 3-((2S)-2-hydroxy-3-(8-(4-methoxy-5,6,7,8-tetrahydronaphthalen-1-ylsulfonyl)-1-oxa-8-azaspiro[4.5]decan-3-ylamino)propoxy)-N-methylbenzenesulfonamide]: the concentration for half-maximal inhibition (IC50) was determined as 109 nM. As to `CCNS(=O)(=O)c1cccc(OC[C@@H](O)CN[C@H]2COC3(CCN(S(=O)(=O)c4cnc5cc[nH]c5c4)CC3)C2)c1` [Compound 520, 3-((S)-3-((R)-8-(1H-pyrrolo[3,2-b]pyridin-6-ylsulfonyl)-1-oxa-8-azaspiro[4.5]decan-3-ylamino)-2-hydroxypropoxy)-N-ethylbenzenesulfonamide], the IC50 came out at 14.6 nM. In the case of `CNS(=O)(=O)c1cccc(OC[C@@H](O)CN[C@H]2COC3(CCN(S(=O)(=O)c4cc5nc[nH]c5nc4C)CC3)C2)c1` [Compound 516, 3-((S)-2-hydroxy-3-((R)-8-(5-methyl-3H-imidazo[4,5-b]pyridin-6-ylsulfonyl)-1-oxa-8-azaspiro[4.5]decan-3-ylamino)propoxy)-N-methylbenzenesulfonamide] it was 166 nM; in that of `CNS(=O)(=O)c1cccc(OC[C@@H](O)CN[C@H]2COC3(CCN(S(=O)(=O)c4cc5c(nc4OC)OCCN5C)CC3)C2)c1` [Compound 476, 3-((S)-2-hydroxy-3-((R)-8-(6-methoxy-1-methyl-2,3-dihydro-1H-pyrido[2,3-b][1,4]oxazin-7-ylsulfonyl)-1-oxa-8-azaspiro[4.5]decan-3-ylamino)propoxy)-N-methylbenzenesulfonamide], 38.9 nM; in that of `CNS(=O)(=O)c1cccc(OC[C@@H](O)CNC2COC3(CCN(S(=O)(=O)c4ccc(OC)c(C)c4C)CC3)C2)c1` (stereo partly drawn) [Compound 242, 3-((2S)-2-hydroxy-3-(8-(4-methoxy-2,3-dimethylphenylsulfonyl)-1-oxa-8-azaspiro[4.5]decan-3-ylamino)propoxy)-N-methylbenzenesulfonamide], 420 nM. As for `CNS(=O)(=O)c1cccc(OC[C@@H](O)CN[C@H]2COC3(CCN(S(=O)(=O)c4cccc(-c5ccc(N)nc5)c4)CC3)C2)c1` [Compound 287, 3-((S)-3-((R)-8-(3-(6-aminopyridin-3-yl)phenylsulfonyl)-1-oxa-8-azaspiro[4.5]decan-3-ylamino)-2-hydroxypropoxy)-N-methylbenzenesulfonamide], the 50% inhibitory concentration (IC50) came to 21.9 nM. In the case of `CNS(=O)(=O)c1cccc(OC[C@@H](O)CN[C@H]2COC3(CCN(S(=O)(=O)c4cnc5c(c4)OCCN5C)CC3)C2)c1` [Compound 481, 3-((S)-2-hydroxy-3-((R)-8-(4-methyl-3,4-dihydro-2H-pyrido[3,2-b][1,4]oxazin-7-ylsulfonyl)-1-oxa-8-azaspiro[4.5]decan-3-ylamino)propoxy)-N-methylbenzenesulfonamide] it was 31.1 nM. With `NS(=O)(=O)c1cccc(OC[C@@H](O)CN[C@H]2COC3(CCN(S(=O)(=O)c4c[nH]c5ccc(F)cc5c4=O)CC3)C2)c1` [Compound 552, 3-((S)-3-((R)-8-(6-fluoro-4-oxo-1,4-dihydroquinolin-3-ylsulfonyl)-1-oxa-8-azaspiro[4.5]decan-3-ylamino)-2-hydroxypropoxy)benzenesulfonamide] the figure was 17.8 nM; with `CNS(=O)(=O)c1cccc(OC[C@@H](O)CN[C@H]2COC3(CCN(S(=O)(=O)c4cnc5c(C)cccc5c4O)CC3)C2)c1` [Compound 528, 3-((S)-2-hydroxy-3-((R)-8-(4-hydroxy-8-methylquinolin-3-ylsulfonyl)-1-oxa-8-azaspiro[4.5]decan-3-ylamino)propoxy)-N-methylbenzenesulfonamide], 10.2 nM.
